The values that follow are results of earlier work, collected in patent US10376473B2, “Transdermal adhesive compositions, devices, and methods” (priority 2010, dated 2019).

SMILES strings stand for the structures. Where two headings read alike, the source gives them in different places.

For the series the following is noted: after 2 months at 60° C.

On to `CCN(C)C(=O)Oc1cccc([C@H](C)N(C)C)c1` [(S)—N-ethyl-3-[(1-dimethylamino)ethyl]-N-methylphenyl carbamate], for which the degradation products is 1.3% (composition with 0.1% tocopherol (antioxidant)) and 4.46% (composition without the antioxidant).
